From patent US7098218B2, “Steroidal compounds for inhibiting steroid sulphatase” (priority 2001, dated 2006)

Assays:
[1] = biological target: T1, E2DH Type I (HSD Type I) in T47D breast cancer cells (Homo sapiens, UniProt P14061); experiment: Conversion of oestrone to oestradiol in intact T47D cell monolayers (Protocol 7); assay type: cell-based; conditions: measured at 10 μM; for inhibition at 10 µM: T47D, read-out: % Inhibition E1 → E2 ± SD (HSD Type I)
T1 construct: T47D breast cancer cells in which E2HSD Type I activity is abundant; endogenous in cells; host or cells: T47D breast cancer cells
T1 sequence (P14061 2-328 limits assumed): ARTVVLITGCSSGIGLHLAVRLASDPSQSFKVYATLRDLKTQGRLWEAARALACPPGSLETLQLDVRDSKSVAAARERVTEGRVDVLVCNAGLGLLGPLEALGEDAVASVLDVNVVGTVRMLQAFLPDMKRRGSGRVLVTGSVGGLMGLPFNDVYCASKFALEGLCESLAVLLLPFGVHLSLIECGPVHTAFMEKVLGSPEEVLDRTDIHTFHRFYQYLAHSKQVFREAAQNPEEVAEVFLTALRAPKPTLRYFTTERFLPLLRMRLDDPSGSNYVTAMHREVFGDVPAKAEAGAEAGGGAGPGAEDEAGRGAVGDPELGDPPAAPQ
Method: (§1) The ability of compounds to inhibit steroid dehydrogenase activity can be assessed using either T47D breast cancer cells in which E2HSD Type I activity is abundant or MDA-MB-231 cells for Type II inhibitor studies. In both cell lines formation of products is linear with respect to time and cell numbers. Details on a suitable Assay Protocol are presented in the Examples section.
(§2) Conversion of oestrone to oestradiol (E1→E2, E2DH Type I) and oestradiol to oestrone (E2→E1, E2DH Type II) was measured in intact cell monolayers of T47D and MDA-MB231 breast cancer cells respectively. Cells were cultured in flasks until they were 80–90% confluent. ^3 H-E1 or ^3H-E2 (6 pmol, ˜90 Ci/mmol) were added to each flask in the absence (control) or presence of various test compounds (10 μM) in 2.5 ml of medium. Substrate was also added to flasks without cells and incubated in parallel (blanks).
(§3) After incubation with T47D cells for 30 min or MDA cells for 3 h at 37° C., 2 ml of the medium was added to test tubes containing ^14C-E2 or ^14C-E1 (˜5000 cpm) and 50 μg E2 or E1 respectively. Steroids were extracted from the aqueous medium with diethyl ether (4 ml). The ether phase was decanted into separate tubes after freezing the aqueous phase in solid carbon dioxide-methanol mixture. The ether was evaporated to dryness under a stream of air at 40° C. The residue was dissolved in a small volume of diethyl ether and applied to TLC plates containing a fluorescent indicator. E1 and E2 were separated by TLC using DCM-Ethyl acetate (4:1 v/v). The position of the product from each incubation flask was marked on the TLC plate after visualisation under UV light. The marked regions were cut out and placed in scintillation vials containing methanol (0.5 ml) to elute the product. The amount of ^3 H-product formed and ^14C-E1 or ^14C-E2 recovered were calculated after scintillation spectrometry. The amount of product formed was corrected for procedural losses and for the number of cells in each flask.

[2] = biological target: T2, E2DH Type II (HSD Type II) in MDA-MB231 breast cancer cells (Homo sapiens, UniProt P37059); experiment: Conversion of oestradiol to oestrone in intact MDA-MB231 cell monolayers (Protocol 7); assay type: cell-based; conditions: MDA-MB-231, measured at 10 μM, read-out: % Inhibition E2 → E1 ± SD (HSD Type II)
T2 construct: endogenous in cells; host or cells: MDA-MB-231 breast cancer cells
T2 sequence (P37059 1-387): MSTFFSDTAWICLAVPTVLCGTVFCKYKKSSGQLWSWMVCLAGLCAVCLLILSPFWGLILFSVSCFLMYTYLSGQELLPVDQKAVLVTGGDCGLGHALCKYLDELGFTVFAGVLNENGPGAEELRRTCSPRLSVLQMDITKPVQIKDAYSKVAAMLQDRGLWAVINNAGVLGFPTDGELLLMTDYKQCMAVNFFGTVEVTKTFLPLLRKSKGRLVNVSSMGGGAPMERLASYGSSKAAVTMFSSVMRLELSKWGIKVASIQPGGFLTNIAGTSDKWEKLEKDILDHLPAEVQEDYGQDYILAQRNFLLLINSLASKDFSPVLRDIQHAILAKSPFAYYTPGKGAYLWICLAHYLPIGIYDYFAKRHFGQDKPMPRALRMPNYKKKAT
Method: as §1, §2, §3

STS = biological target: T3, STS (Homo sapiens, UniProt P08842); experiment: biochemical; conditions: STS IC50 (nM), inhibition of E1S→E1; Table 1
T3 construct: can be assessed using either intact MCF-7 breast cancer cells or placental microsomes
T3 sequence (P08842 22-583): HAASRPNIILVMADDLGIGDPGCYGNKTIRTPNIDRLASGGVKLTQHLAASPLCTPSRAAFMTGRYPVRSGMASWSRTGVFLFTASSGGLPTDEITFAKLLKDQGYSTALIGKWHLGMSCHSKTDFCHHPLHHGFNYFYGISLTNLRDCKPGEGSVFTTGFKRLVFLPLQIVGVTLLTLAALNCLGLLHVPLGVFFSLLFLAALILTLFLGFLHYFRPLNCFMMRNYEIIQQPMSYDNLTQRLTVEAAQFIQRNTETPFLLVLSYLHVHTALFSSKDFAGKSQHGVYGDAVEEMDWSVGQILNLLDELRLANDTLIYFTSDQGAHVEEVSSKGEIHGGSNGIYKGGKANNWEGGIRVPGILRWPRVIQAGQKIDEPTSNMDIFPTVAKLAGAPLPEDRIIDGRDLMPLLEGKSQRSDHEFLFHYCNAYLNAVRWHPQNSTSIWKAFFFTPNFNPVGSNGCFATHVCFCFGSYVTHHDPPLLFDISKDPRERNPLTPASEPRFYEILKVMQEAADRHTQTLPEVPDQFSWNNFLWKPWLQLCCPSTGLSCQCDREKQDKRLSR

[3] = biological target: T4, human placental steroid sulphatase (Homo sapiens, UniProt P08842); experiment: Inhibition of oestrone sulphatase activity in human placental microsomes; assay type: biochemical; conditions: for inhibition at 0.0001 µM / inhibition at 0.001 µM / inhibition at 0.01 µM / inhibition at 0.1 µM / inhibition at 1 µM / inhibition at 10 µM: read-out: Mean % Inhibition ± SD
T4 construct: Placental microsomes (100000 g fraction) were prepared from a positive-positive human placenta from a normal-term pregnancy; from tissue; host or cells: human placenta, microsomal fraction
T4 sequence (P08842 22-583): T3 sequence (P08842 22-583)

Compound | inhibition at 10 µM [1] [%] | melting point [°C] | inhibition at 10 µM [2] [%] | also measured
C[C@]12CCC3c4ccc(OS(N)(=O)=O)cc4CCC3C1CC(=O)N(Cc1cccnc1)C2=O (stereo partly shown) [compound 237] | -2 |  |  | 
CC(C)(C)c1ccc(CN2C(=O)CC3C4CCc5cc(O)ccc5C4CC[C@]3(C)C2=O)cc1 (stereo partly shown) |  | 128 to 130 |  | 
C[C@]12CCC3c4ccc(OS(N)(=O)=O)cc4CCC3C1CC(=O)N(CCCCBr)C2=O (stereo partly shown) [compound 286] | 26 ± 3.23 |  | -2.98 ± 0.38 | 
C=CCN1C(=O)CC2C3CCc4cc(O)ccc4C3CC[C@]2(C)C1=O (stereo partly shown) [compound 274] | 36.82 ± 0.36 |  | -4.04 ± 0.36 | 
C[C@]12CCC3c4ccc(O)cc4CCC3C1CC(=O)N(CC1CC1)C2=O (stereo partly shown) [compound 278] | 24.2 ± 1.71 |  | 8.31 ± 2.46 | 
C=CCN1C(=O)CC2C3CCc4cc(O)ccc4C3CC[C@]2(C)C1=O (stereo partly shown) |  | 147 to 149 |  | 
CCCCCCN1C(=O)CC2C3CCc4cc(O)ccc4C3CC[C@]2(C)C1=O (stereo partly shown) [compound 276] | 22.7 ± 2.2 |  | 8.32 ± 7.5 | 
CCCCCN1C(=O)CC2C3CCc4cc(O)ccc4C3CC[C@]2(C)C1=O (stereo partly shown) [compound 190] | 24.1 ± 4.59 |  | 0.48 ± 4.76 | 
C[C@]12CCC3c4ccc(O)cc4CCC3C1CC(=O)NC2=O (stereo partly shown) [compound 187] | 25.3 ± 2.2 |  | -15.4 ± 0.41 | 
C[C@]12CCC3c4ccc(O)cc4CCC3C1CC(=O)N(Cc1cccnc1)C2=O (stereo partly shown) [compound 234] | 25.8 ± 9.27 |  | -1.45 ± 11.4 | 
CCCN1C(=O)CC2C3CCc4cc(O)ccc4C3CC[C@]2(C)C1=O (stereo partly shown) |  | 183 to 186 |  | 
CCCCCCN1C(=O)CC2C3CCc4cc(OS(N)(=O)=O)ccc4C3CC[C@]2(C)C1=O (stereo partly shown) [compound 282] |  |  |  | IC50 (STS): 288 nM
CCCCCN1C(=O)CC2C3CCc4cc(O)ccc4C3CC[C@]2(C)C1=O (stereo partly shown) |  | 181 to 184 |  | 
C[C@]12CCC3c4ccc(O)cc4CCC3C1CC(=O)NC2=O (stereo partly shown) |  | 297 to 300 |  | 
CCCCN1C(=O)CC2C3CCc4cc(O)ccc4C3CC[C@]2(C)C1=O (stereo partly shown) [compound 277] | 18.6 ± 0.89 |  | 13.2 ± 9.74 | 
CCCCN1C(=O)CC2C3CCc4cc(OS(N)(=O)=O)ccc4C3CC[C@]2(C)C1=O (stereo partly shown) [compound 283] |  |  |  | IC50 (STS): 382 nM
C[C@]12CCC3c4ccc(O)cc4CCC3C1CC(=O)N(Cc1ccccc1)C2=O (stereo partly shown) [compound 233] | 58.8 ± 0.68 |  | 35.8 ± 3.88 | % Inhibition E1 → E2 ± SD (HSD Type I) ([1]; 10 µM): 57.43 ± 1.89%

Compound | inhibition at 10 µM [1] [%] | melting point [°C] | inhibition at 10 µM [2] [%] | also measured
CCCCCCN1C(=O)CC2C3CCc4cc(O)ccc4C3CC[C@]2(C)C1=O (stereo partly shown) |  | 157 to 159 |  | 
CCN1C(=O)CC2C3CCc4cc(O)ccc4C3CC[C@]2(C)C1=O (stereo partly shown) |  | 306 to 308 |  | 
CN1C(=O)CC2C3CCc4cc(OS(N)(=O)=O)ccc4C3CC[C@]2(C)C1=O (stereo partly shown) [Compound 37, 3-Sulfamoyl-N-methyl-16,17-seco-estra-1,3,5(10)-triene-16,17-imide] |  |  |  | IC50 [3]: 12 nM; inhibition at 0.0001 µM [3]: 4.7 ± 3%; inhibition at 0.001 µM [3]: 15 ± 2.6%; inhibition at 0.01 µM [3]: 46.4 ± 6%; inhibition at 0.1 µM [3]: 81.9 ± 3.3%; inhibition at 1 µM [3]: 96.4 ± 5.1%; inhibition at 10 µM [3]: 99.1 ± 0.2%
C[C@]12CCC3c4ccc(O)cc4CCC3C1CC(=O)N(CC1CC1)C2=O (stereo partly shown) |  | 238 to 240 |  | 
C[C@]12CCC3c4ccc(O)cc4CCC3C1CC(=O)N(Cc1ccccc1)C2=O (stereo partly shown) |  | 298 to 301 |  | 
COc1cc2c(cc1O)CCC1C2CC[C@]2(C)C(=O)NC(=O)CC12 (stereo partly shown) [compound 325] | 7.78 ± 2.45 |  | -20.2 ± 14.8 | 
CCCN1C(=O)CC2C3CCc4cc(O)ccc4C3CC[C@]2(C)C1=O (stereo partly shown) [compound 189] | 17 ± 3.25 |  | 5.05 ± 2.31 | 
CN1C(=O)CC2C3CCc4cc(O)ccc4C3CC[C@]2(C)C1=O (stereo partly shown) |  | 328 to 330 |  | 
C[C@]12CCC3c4ccc(O)cc4CCC3C1CC(=O)N(CCCCBr)C2=O (stereo partly shown) |  | 165 to 167 |  | 
CC(C)(C)c1ccc(CN2C(=O)CC3C4CCc5cc(O)ccc5C4CC[C@]3(C)C2=O)cc1 (stereo partly shown) [compound 279] | 16 ± 0.88 |  | 3.87 ± 4.97 | 
C[C@]12CCC3c4ccc(OS(N)(=O)=O)cc4CCC3C1CC(=O)NC2=O (stereo partly shown) [Compound 36, 3-Sulfamoyl-16,17-seco-estra-1,3,5(10)-Triene16,17-imide] |  |  |  | IC50 [3]: 20 nM; inhibition at 0.0001 µM [3]: -6.5 ± 3.6%; inhibition at 0.001 µM [3]: -2.5 ± 3%; inhibition at 0.01 µM [3]: 17.4 ± 32.3%; inhibition at 0.1 µM [3]: 72.6 ± 3.1%; inhibition at 1 µM [3]: 93.8 ± 4.2%; inhibition at 10 µM [3]: 98.7 ± 2.7%
CN1C(=O)CC2C3CCc4cc(O)ccc4C3CC[C@]2(C)C1=O (stereo partly shown) [compound 188] | 33 ± 1.79 |  | -3.51 ± 2.44 | 
C[C@]12CCC3c4ccc(OS(N)(=O)=O)cc4CCC3C1CC(=O)N(Cc1ccccc1)C2=O (stereo partly shown) [STX 236, 3-Sulfamoyl-N-benzyl-16,17-seco-estra-1,3,5(10)-triene-16,7-imide] |  |  |  | inhibition of STS (in words) ([3]; in vitro): in a minor extend
C=CCN1C(=O)CC2C3CCc4cc(OS(N)(=O)=O)ccc4C3CC[C@]2(C)C1=O (stereo partly shown) [compound 280] |  |  |  | IC50 (STS): 75 nM
C[C@]12CCC3c4ccc(O)cc4CCC3C1CC(=O)N(CCCCBr)C2=O (stereo partly shown) [compound 235] | 16.6 ± 1.46 |  | 10.7 ± 0.78 | 
CCN1C(=O)CC2C3CCc4cc(O)ccc4C3CC[C@]2(C)C1=O (stereo partly shown) [compound 275] | 42.5 ± 3.02 |  | 32.1 ± 1.06 | 
